Source: patent US7728012B2, “Carboxamide compounds and their use as calpain inhibitors” (Abbott GmbH & Co. KG, priority 2006, dated 2010)

Columns and labels:
Assay type in all cases: biochemical
[1] = biological target: T1, calpain-I isolated from human erythrocytes (Homo sapiens, UniProt P07384); assay: Calpain I kinetic fluorescence enzyme inhibition assay; settings: apparent Ki from IC50 by Cheng-Prussoff; average of 2 to 4 dose-effect plots
T1 construct: calpain-I—isolated from human erythrocytes; purchased Calbiochem 208713; host or cells: human erythrocytes (tissue isolate)
T1 sequence (P07384 1-714): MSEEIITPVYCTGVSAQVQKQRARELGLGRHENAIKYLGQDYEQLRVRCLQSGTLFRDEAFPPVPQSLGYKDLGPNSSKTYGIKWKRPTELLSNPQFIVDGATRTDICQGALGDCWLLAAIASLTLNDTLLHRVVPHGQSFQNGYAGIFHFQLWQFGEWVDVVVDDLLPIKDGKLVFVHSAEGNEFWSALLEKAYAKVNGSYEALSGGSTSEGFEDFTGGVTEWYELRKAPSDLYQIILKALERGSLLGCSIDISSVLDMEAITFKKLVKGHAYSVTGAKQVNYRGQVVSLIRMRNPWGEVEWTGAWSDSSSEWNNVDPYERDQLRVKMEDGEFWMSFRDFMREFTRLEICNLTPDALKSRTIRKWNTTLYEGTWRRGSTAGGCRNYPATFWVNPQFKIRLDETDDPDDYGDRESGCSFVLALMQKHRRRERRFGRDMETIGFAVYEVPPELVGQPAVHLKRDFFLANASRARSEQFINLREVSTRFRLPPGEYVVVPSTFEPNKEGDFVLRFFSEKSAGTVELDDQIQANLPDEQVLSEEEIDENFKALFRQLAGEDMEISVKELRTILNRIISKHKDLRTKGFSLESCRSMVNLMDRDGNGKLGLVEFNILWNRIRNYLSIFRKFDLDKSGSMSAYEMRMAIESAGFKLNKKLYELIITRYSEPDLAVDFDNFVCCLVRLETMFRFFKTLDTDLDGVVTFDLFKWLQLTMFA
T1 sequence (P04632 1-268 partner): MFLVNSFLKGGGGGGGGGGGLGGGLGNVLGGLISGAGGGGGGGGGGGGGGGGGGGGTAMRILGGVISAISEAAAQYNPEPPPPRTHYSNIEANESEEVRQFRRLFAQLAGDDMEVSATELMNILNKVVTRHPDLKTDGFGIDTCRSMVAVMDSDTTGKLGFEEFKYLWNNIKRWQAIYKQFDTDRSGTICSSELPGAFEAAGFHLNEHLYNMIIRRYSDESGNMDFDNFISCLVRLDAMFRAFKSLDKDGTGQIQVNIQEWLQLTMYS

[2] = biological target: T2, cathepsin B isolated from human liver (Homo sapiens, UniProt P07858); assay: Cathepsin B kinetic fluorescence enzyme inhibition assay; settings: selectivity ratio versus calpain I
T2 construct: cathepsin B—isolated from human liver; purchased Calbiochem 219362; host or cells: human liver (tissue isolate)
How it was run: (§1)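 Inhibition is measured at room temperature in cysteine-containing MES buffer, pH 6.0, by continuous fluorescence at 460 nm. Cathepsin S (0.5 nM) uses 20 μM Z-Val-Val-Arg-AMC; L (1 nM) and B (0.25 nM) use Z-Phe-Arg-AMC at 2 and 100 μM respectively.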

[3] = biological target: T3, cathepsin K activated from recombinant human procathepsin K (Homo sapiens, UniProt P43235); assay: Cathepsin K kinetic fluorescence enzyme inhibition assay; settings: selectivity ratio versus calpain I
T3 construct: purchased Calbiochem 342001; host or cells: E. coli
T3 sequence (P43235 115-329): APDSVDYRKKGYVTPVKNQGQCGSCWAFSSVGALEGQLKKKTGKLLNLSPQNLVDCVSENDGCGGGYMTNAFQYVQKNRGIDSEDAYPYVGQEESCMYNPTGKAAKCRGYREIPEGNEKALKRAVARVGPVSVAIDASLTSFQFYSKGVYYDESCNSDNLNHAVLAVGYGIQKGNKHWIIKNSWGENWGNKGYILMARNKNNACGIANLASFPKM

[4] = biological target: T4, cathepsin L isolated from human liver (Homo sapiens, UniProt P07711); assay: Cathepsin L kinetic fluorescence enzyme inhibition assay; settings: selectivity ratio versus calpain I
T4 construct: cathepsin L—isolated from human liver; purchased Calbiochem 219402; host or cells: human liver (tissue isolate)
T4 sequence (P07711 114-333): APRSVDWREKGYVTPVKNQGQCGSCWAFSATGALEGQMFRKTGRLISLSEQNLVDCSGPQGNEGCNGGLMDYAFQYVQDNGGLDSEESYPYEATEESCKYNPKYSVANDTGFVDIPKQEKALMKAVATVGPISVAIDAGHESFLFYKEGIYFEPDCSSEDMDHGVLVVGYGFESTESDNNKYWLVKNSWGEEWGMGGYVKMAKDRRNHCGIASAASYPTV
How it was run: as §1

[5] = biological target: T5, recombinant human cathepsin S (Homo sapiens, UniProt P25774); assay: Cathepsin S kinetic fluorescence enzyme inhibition assay; settings: selectivity ratio versus calpain I
T5 construct: purchased Calbiochem 219343; host or cells: E. coli
T5 sequence (P25774 115-331): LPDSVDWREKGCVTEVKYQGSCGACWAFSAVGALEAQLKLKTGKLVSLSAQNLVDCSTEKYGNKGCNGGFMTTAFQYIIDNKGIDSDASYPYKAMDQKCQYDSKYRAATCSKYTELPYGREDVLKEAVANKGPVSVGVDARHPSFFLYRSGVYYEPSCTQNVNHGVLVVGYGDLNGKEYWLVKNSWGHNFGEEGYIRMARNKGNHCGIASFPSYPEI
How it was run: as §1

| Compound | Ki [1] [µM] | Sel cat. B (Ki(cathepsin B)/Ki(calpain) ratio) [2] | Sel cat. K (Ki(cathepsin K)/Ki(calpain) ratio) [3] | Sel cat. L (Ki(cathepsin L)/Ki(calpain) ratio) [4] | Sel cat. S (Ki(cathepsin S)/Ki(calpain) ratio) [5] |
| --- | --- | --- | --- | --- | --- |
| NC(=O)C(=O)C(Cc1ccccc1)NC(=O)c1cccnc1-n1ccc(-c2c(Cl)cccc2Cl)n1 (stereo not shown) [Example 95, N-[3-Amino-2,3-dioxo-1-(phenylmethyl)propyl]-2-[3-(2,6-dichlorophenyl)-1H-pyrazol-1-yl]pyridine-3-carboxamide] | ≤ 0.04 | ++ (Ki(cathepsin B)/Ki(calpain) ratio of ≧30) | ++ (Ki(cathepsin K)/Ki(calpain) ratio of ≧30) | ++ (Ki(cathepsin L)/Ki(calpain) ratio of ≧50) | ++ (Ki(cathepsin S)/Ki(calpain) ratio of ≧100) |
| NC(=O)C(=O)C(Cc1ccccc1)NC(=O)c1cccnc1-n1ccc(-c2cccc(OCc3ccccc3)c2)n1 (stereo not shown) [Example 96, N-[3-Amino-2,3-dioxo-1-(phenylmethyl)propyl]-2-(3-{3-[(phenylmethyl)oxy]phenyl}-1H-pyrazol-1-yl)pyridine-3-carboxamide] | ≤ 0.04 | ++ (Ki(cathepsin B)/Ki(calpain) ratio of ≧30) | ++ (Ki(cathepsin K)/Ki(calpain) ratio of ≧30) | ++ (Ki(cathepsin L)/Ki(calpain) ratio of ≧50) | ++ (Ki(cathepsin S)/Ki(calpain) ratio of ≧100) |
| COc1ccc(CC(NC(=O)c2cccnc2-n2ccc(-c3ccc(F)cc3F)n2)C(=O)C(N)=O)cc1 (stereo not shown) [Example 97, N-(3-Amino-1-{[4-(methyloxy)phenyl]methyl}-2,3-dioxopropyl)-2-[3-(2,4-difluorophenyl)-1H-pyrazol-1-yl]pyridine-3-carboxamide] | ≤ 0.04 | ++ (Ki(cathepsin B)/Ki(calpain) ratio of ≧30) | + (10≦Ki(cathepsin K)/Ki(calpain)<30) | ++ (Ki(cathepsin L)/Ki(calpain) ratio of ≧50) | ++ (Ki(cathepsin S)/Ki(calpain) ratio of ≧100) |
| COc1ccc(CC(NC(=O)c2cccnc2-n2ccc(-c3ccc(Cl)cc3Cl)n2)C(=O)C(N)=O)cc1 (stereo not shown) [Example 98, N-(3-Amino-1-{[4-(methyloxy)phenyl]methyl}-2,3-dioxopropyl)-2-[3-(2,4-dichlorophenyl)-1H-pyrazol-1-yl]pyridine-3-carboxamide] | ≤ 0.04 | ++ (Ki(cathepsin B)/Ki(calpain) ratio of ≧30) | ++ (Ki(cathepsin K)/Ki(calpain) ratio of ≧30) | ++ (Ki(cathepsin L)/Ki(calpain) ratio of ≧50) | ++ (Ki(cathepsin S)/Ki(calpain) ratio of ≧100) |
| NC(=O)C(=O)C(Cc1ccccc1)NC(=O)c1cccnc1-n1ccc(-c2ccc(N3CCOCC3)cc2Cl)n1 (stereo not shown) [Example 99, N-[3-Amino-2,3-dioxo-1-(phenylmethyl)propyl]-2-[3-(2-chloro-4-morpholin-4-ylphenyl)-1H-pyrazol-1-yl]pyridine-3-carboxamide] | ≤ 0.04 | ++ (Ki(cathepsin B)/Ki(calpain) ratio of ≧30) | ++ (Ki(cathepsin K)/Ki(calpain) ratio of ≧30) | ++ (Ki(cathepsin L)/Ki(calpain) ratio of ≧50) | ++ (Ki(cathepsin S)/Ki(calpain) ratio of ≧100) |
| NC(=O)C(=O)C(Cc1ccccc1)NC(=O)c1cccnc1-n1cc2c(n1)-c1ccccc1OC2 (stereo not shown) [Example 100, N-[3-Amino-2,3-dioxo-1-(phenylmethyl)propyl]-2-chromeno[4,3-c]pyrazol-2(4H)-ylpyridine-3-carboxamide] | ≤ 0.04 | + (10≦Ki(cathepsin B)/Ki(calpain)<30) | ++ (Ki(cathepsin K)/Ki(calpain) ratio of ≧30) | ++ (Ki(cathepsin L)/Ki(calpain) ratio of ≧50) | ++ (Ki(cathepsin S)/Ki(calpain) ratio of ≧100) |
| NC(=O)C(=O)C(Cc1ccccc1)NC(=O)c1cccnc1-n1ccc(-c2ccc(N3CCOCC3)cc2F)n1 (stereo not shown) [Example 102, N-[3-Amino-2,3-dioxo-1-(phenylmethyl)propyl]-2-[3-(2-fluoro-4-morpholin-4-ylphenyl)-1H-pyrazol-1-yl]pyridine-3-carboxamide] | ≤ 0.04 | + (10≦Ki(cathepsin B)/Ki(calpain)<30) | ++ (Ki(cathepsin K)/Ki(calpain) ratio of ≧30) | ++ (Ki(cathepsin L)/Ki(calpain) ratio of ≧50) | ++ (Ki(cathepsin S)/Ki(calpain) ratio of ≧100) |
| NC(=O)C(=O)C(Cc1ccccc1)NC(=O)c1cccnc1-n1ccc(-c2ccc(Cl)s2)n1 (stereo not shown) [Example 103, N-[3-Amino-2,3-dioxo-1-(phenylmethyl)propyl]-2-[3-(5-chloro-2-thienyl)-1H-pyrazol-1-yl]pyridine-3-carboxamide] | ≤ 0.04 | + (10≦Ki(cathepsin B)/Ki(calpain)<30) | + (10≦Ki(cathepsin K)/Ki(calpain)<30) | ++ (Ki(cathepsin L)/Ki(calpain) ratio of ≧50) | ++ (Ki(cathepsin S)/Ki(calpain) ratio of ≧100) |
| NC(=O)C(=O)[C@H](Cc1ccccc1)NC(=O)c1cccnc1-n1ccc(-c2ccccc2)n1 [Example 107, N-[(1S)-3-Amino-2,3-dioxo-1-(phenylmethyl)propyl]-2-(3-phenyl-1H-pyrazol-1-yl)pyridine-3-carboxamide] | ≤ 0.04 | + (10≦Ki(cathepsin B)/Ki(calpain)<30) | + (10≦Ki(cathepsin K)/Ki(calpain)<30) | ++ (Ki(cathepsin L)/Ki(calpain) ratio of ≧50) | ++ (Ki(cathepsin S)/Ki(calpain) ratio of ≧100) |
| NC(=O)C(=O)C(Cc1ccccc1)NC(=O)c1cccnc1-n1ccc(-c2sccc2Cl)n1 (stereo not shown) [Example 109, N-[3-Amino-2,3-dioxo-1-(phenylmethyl)propyl]-2-[3-(3-chloro-2-thienyl)-1H-pyrazol-1-yl]pyridine-3-carboxamide] | ≤ 0.04 | ++ (Ki(cathepsin B)/Ki(calpain) ratio of ≧30) | ++ (Ki(cathepsin K)/Ki(calpain) ratio of ≧30) | ++ (Ki(cathepsin L)/Ki(calpain) ratio of ≧50) | ++ (Ki(cathepsin S)/Ki(calpain) ratio of ≧100) |
| NC(=O)C(=O)C(Cc1ccccc1)NC(=O)c1cccnc1-n1ccc(-c2cccc3ccccc23)n1 (stereo not shown) [Example 110, N-[3-Amino-2,3-dioxo-1-(phenylmethyl)propyl]-2-(3-naphthalen-1-yl-1H-pyrazol-1-yl)pyridine-3-carboxamide] | ≤ 0.04 | ++ (Ki(cathepsin B)/Ki(calpain) ratio of ≧30) | ++ (Ki(cathepsin K)/Ki(calpain) ratio of ≧30) | ++ (Ki(cathepsin L)/Ki(calpain) ratio of ≧50) | ++ (Ki(cathepsin S)/Ki(calpain) ratio of ≧100) |
